Experiment: Pharmacokinetic evaluation on mice, intravenous administration (Test Example 6)
Assay type: in vivo
Conditions: mouse, plasma, male CD-1 mice, IV 2 mg/kg; for clearance: read-out: Cl (clearance rate) (converted); for half-life: read-out: T1/2 (half-life) (converted); for Vd: read-out: Vd (volume of distribution)
Description: Experimental objective: male CD-1 mice were chosen as tested animals, and the LC-MS-MS method was employed to measure the concentrations of a tested compound in blood plasma of a mouse intravenously and intragastrically administrated with the tested compound at different times. The pharmacokinetic behaviors of tested compounds in mice were studied, and the pharmacokinetic characteristics thereof were evaluated.
Experimental scheme: experimental animals: 18 healthy adult male CD-1 mice (6 to 8 weeks old, and body weight about 30 g) were divided into 6 groups according to the principle of similar body weights: 3 mice in each of IV groups (3 groups), and 3 mice in each of PO groups (3 groups). The animals were purchased from Shanghai Jihui Laboratory Animal Care Co., Ltd.
Formulation: IV group: taking 10 mL of sample solution for example, 4 mg of sample was weighed, orderly added with 0.5 mL of DMSO and […], then added with […] of HP-p-CD, finally added with water to a constant volume of 10 mL, and stirred and subjected to ultrasonic irradiation, thereby obtaining a 0.4 mg/mL clear solution. PO group: an appropriate amount of sample was weighed, orderly added with appropriate amounts of Labrasol and water in a volume ratio of 10:40, and stirred and subjected to ultrasonic irradiation, thereby obtaining a 1.5 mg/mL uniform solution.
Administration: after being deprived of food for one night, the IV groups were intravenously administrated with the formulated solutions, respectively, with an injection volume of 5 mL/kg and a dosage of 2 mg/kg. The PO groups were intragastrically administrated with the formulated solutions, respectively, with an injection volume of […] and a dosage of 15 mg/kg.
Experimental operations: after the intravenous injection groups and the intragastric administration groups of the male CD-1 mice were administrated with the tested compounds, 110 ul of blood was sampled at the following time points: 0.0833, 0.25, 0.5, 1, 2, 4, 6, 8, and 24 hours. The sampled blood was placed into an anticoagulant tube which was added with K2EDTA in advance and preserved in dry ice. The tube was centrifuged for 15 minutes to separate blood plasma, and the separated blood plasma was preserved at −70° C. The animals were allowed to be fed after 4 hours of administration. The LC-MS-MS method was employed to measure the concentration of the tested compounds in the blood plasma after the intravenous and intragastric administration to the mice. The linear range of the method was 1-3000 ng/ml. The blood plasma samples were analyzed after protein precipitation with ACN.

SMILES	clearance	half-life	Vd
C=CC(=O)N1C[C@@H]2C(=O)N(C)c3c(c4cc(F)c(-c5c(O)cccc5F)nc4n(-c4c(C)ccnc4C(C)C)c3=O)N2C[C@H]1C (single isomer, unassigned) [Compound Z10-2]	13.5 mL/min/kg	0.941 h	1.06 L/kg
C=CC(=O)N1CCN2c3c(c(=O)n(-c4c(C)ccnc4C(C)C)c4nc(-c5c(O)cccc5F)c(Cl)cc34)N(C)C(=O)[C@H]2C1 (single isomer, unassigned) [Compound Z25-2]	8.32 mL/min/kg	1 h	0.661 L/kg
C=CC(=O)N1CCN2c3c(c(=O)n(-c4c(C(C)C)ncnc4C(C)C)c4nc(-c5c(O)cccc5F)c(Cl)cc34)N(C)C(=O)[C@H]2C1 [Compound Z48]	25.5 mL/min/kg	1.02 h	1.66 L/kg
C=CC(=O)N1CCN2c3c(c(=O)n(-c4c(C)ccnc4C(C)C)c4nc(-c5c(O)cccc5F)c(F)cc34)N(C)C(=O)[C@H]2C1 (single isomer, unassigned) [Compound Z9-2]	2.33 mL/min/kg	1.74 h	0.326 L/kg
C=CC(=O)N1C[C@@H]2C(=O)N(C)c3c(c4cc(Cl)c(-c5c(O)cccc5F)nc4n(-c4c(C)ccnc4C(C)C)c3=O)N2C[C@H]1C (single isomer, unassigned) [Compound Z27-2]	9.83 mL/min/kg	1.08 h	0.777 L/kg
